Results: PubChem BioAssay AID1918933 (Molecular Pharmacology Branch, DTP, NCI, 2023)

Tested on: 186277-243-T-J2-PDC complex spheroid viability
Experiment: Anticancer human tumor 186277-243-T-J2-PDC patient-derived colon adenocarcinoma cell line growth inhibition
Details: for IC50: curve of first compound; for viability, T/C: stronger effect = lower value
In short: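 Drug combinations with the LSD1 inhibitor iadademstat tested on tumor cells co-cultured as spheroids with endothelial cells and mesenchymal stem cells. Concentrations descended in half-log increments from clinical Cmax or 10 microM.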
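Also: 7 day exposure to compounds.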
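For viability, T/C in this document: 100% = DMSO vehicle control viability.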

Compound `Nc1ncn(C2CC(O)C(CO)S2)c(=O)n1` (stereo not given) + NC1CC1c1ccc(-c2cccc(O)c2)cc1 has an IC50 (second compound 0.1 µM) of 105 nM, an IC50 (second compound 0.316 µM) of 88.8 nM and an IC50 (second compound 1 µM) of 91.4 nM. It also gave an IC50 (second compound 3.16 µM) of 97.4 nM, an IC50 (second compound 10 µM) of 79.5 nM and a viability, T/C (second compound 0.1 µM, first compound 0.000949 µM) of 113%. It also gave a viability, T/C (second compound 0.1 µM, first compound 0.003 µM) of 123%, a viability, T/C (second compound 0.1 µM, first compound 0.00949 µM) of 125% and a viability, T/C (second compound 0.1 µM, first compound 0.03 µM) of 143%. For the same compound, the viability, T/C (second compound 0.1 µM, first compound 0.0949 µM) was 53.8%, the viability, T/C (second compound 0.1 µM, first compound 0.3 µM) was 10.9% and the viability, T/C (second compound 0.316 µM, first compound 0.000949 µM) was 103%. It also gave a viability, T/C (second compound 0.316 µM, first compound 0.003 µM) of 119%, a viability, T/C (second compound 0.316 µM, first compound 0.00949 µM) of 110% and a viability, T/C (second compound 0.316 µM, first compound 0.03 µM) of 129%. The viability, T/C (second compound 0.316 µM, first compound 0.0949 µM) was 46%, the viability, T/C (second compound 0.316 µM, first compound 0.3 µM) was 9.74% and the viability, T/C (second compound 1 µM, first compound 0.000949 µM) was 102%. The viability, T/C (second compound 1 µM, first compound 0.003 µM) was 106%, the viability, T/C (second compound 1 µM, first compound 0.00949 µM) was 130% and the viability, T/C (second compound 1 µM, first compound 0.03 µM) was 128%. It also gave a viability, T/C (second compound 1 µM, first compound 0.0949 µM) of 47.7%, a viability, T/C (second compound 1 µM, first compound 0.3 µM) of 10.7% and a viability, T/C (second compound 3.16 µM, first compound 0.000949 µM) of 113%. It also gave a viability, T/C (second compound 3.16 µM, first compound 0.003 µM) of 111%, a viability, T/C (second compound 3.16 µM, first compound 0.00949 µM) of 105% and a viability, T/C (second compound 3.16 µM, first compound 0.03 µM) of 137%. For the same compound, the viability, T/C (second compound 3.16 µM, first compound 0.0949 µM) was 50.9%, the viability, T/C (second compound 3.16 µM, first compound 0.3 µM) was 10.3% and the viability, T/C (second compound 10 µM, first compound 0.000949 µM) was 93.8%. For the same compound, the viability, T/C (second compound 10 µM, first compound 0.003 µM) was 94.1%, the viability, T/C (second compound 10 µM, first compound 0.00949 µM) was 104% and the viability, T/C (second compound 10 µM, first compound 0.03 µM) was 107%. The viability, T/C (second compound 10 µM, first compound 0.0949 µM) was 41% and the viability, T/C (second compound 10 µM, first compound 0.3 µM) was 8.69%.

Work on `O=C(C=Cn1cnc(-c2cc(C(F)(F)F)cc(C(F)(F)F)c2)n1)NNc1cnccn1` + NC1CC1c1ccc(-c2cccc(O)c2)cc1 yielded an IC50 (second compound 0.1 µM) of 56.5 nM, an IC50 (second compound 0.316 µM) of 57.2 nM and an IC50 (second compound 1 µM) of 60 nM. For the same compound, the IC50 (second compound 3.16 µM) was 58.4 nM, the IC50 (second compound 10 µM) was 52.5 nM and the viability, T/C (second compound 0.1 µM, first compound 0.00316 µM) was 97.5%. For the same compound, the viability, T/C (second compound 0.1 µM, first compound 0.01 µM) was 96%, the viability, T/C (second compound 0.1 µM, first compound 0.0316 µM) was 84.8% and the viability, T/C (second compound 0.1 µM, first compound 0.1 µM) was 15.7%. The viability, T/C (second compound 0.1 µM, first compound 0.316 µM) was 2.81%, the viability, T/C (second compound 0.1 µM, first compound 1 µM) was 1.29% and the viability, T/C (second compound 0.316 µM, first compound 0.00316 µM) was 104%. It also gave a viability, T/C (second compound 0.316 µM, first compound 0.01 µM) of 105%, a viability, T/C (second compound 0.316 µM, first compound 0.0316 µM) of 88.3% and a viability, T/C (second compound 0.316 µM, first compound 0.1 µM) of 13.8%. The viability, T/C (second compound 0.316 µM, first compound 0.316 µM) was 2.94%, the viability, T/C (second compound 0.316 µM, first compound 1 µM) was 1.28% and the viability, T/C (second compound 1 µM, first compound 0.00316 µM) was 104%. The viability, T/C (second compound 1 µM, first compound 0.01 µM) was 106%, the viability, T/C (second compound 1 µM, first compound 0.0316 µM) was 93.1% and the viability, T/C (second compound 1 µM, first compound 0.1 µM) was 15.5%. It also gave a viability, T/C (second compound 1 µM, first compound 0.316 µM) of 3.14%, a viability, T/C (second compound 1 µM, first compound 1 µM) of 1.35% and a viability, T/C (second compound 3.16 µM, first compound 0.00316 µM) of 110%. The viability, T/C (second compound 3.16 µM, first compound 0.01 µM) was 116%, the viability, T/C (second compound 3.16 µM, first compound 0.0316 µM) was 91% and the viability, T/C (second compound 3.16 µM, first compound 0.1 µM) was 14%. For the same compound, the viability, T/C (second compound 3.16 µM, first compound 0.316 µM) was 2.92%, the viability, T/C (second compound 3.16 µM, first compound 1 µM) was 1.47% and the viability, T/C (second compound 10 µM, first compound 0.00316 µM) was 94.1%. The viability, T/C (second compound 10 µM, first compound 0.01 µM) was 95.2%, the viability, T/C (second compound 10 µM, first compound 0.0316 µM) was 78.8% and the viability, T/C (second compound 10 µM, first compound 0.1 µM) was 13.3%. The viability, T/C (second compound 10 µM, first compound 0.316 µM) was 3.41% and the viability, T/C (second compound 10 µM, first compound 1 µM) was 1.57%.
